Series [1] has as its system HCV replicon system (Huh-luc/neo-ET cell carrying I389luc-ubi-NS3-3'/ET). In words: Inhibition of the HCV replication by determining the firefly luciferase activity (HCV replicon system). Format: cell-based, Hepatitis C virus. Conditions: for EW (CC50/IC50): ratio of CC50/IC50. The source says:
HCV replicon system was used to test the effects of compounds on the treatment and prevention of hepatitis C. The HCV replicon system has been acknowledged as a screening tool for new drugs (Lohmann, V. et al., 1999, Replication of subgenomic hepatitis C virus RNAs in hepatoma cell line, Science. Vol. 285, 110-113; Bartenschlager, R. 2002, Hepatitis C virus replicons: potential role for drug development, Nature Reviews/Drug Discovery. Vol. 1, 911-916; Vorlijk, J. M. et al., 2003, A replicon-based bioassay for the measurement of interferons in patients with chronic hepatitis C, Journal of Virological Methods. 110:201-209). The HCV replicon system includes a Huh-luc/neo-ET cell carrying I389luc-ubi-NS3-3′/ET gene construct which monitors the replicative capability of the HCV. In the HCV replicon system, a firefly luciferase-ubiquitin-neomycin fusion protein is expressed by the translation of the internal ribosomal entry site (IRES) of the HCV, and the hepatitis C viral nonstructural proteins (NS3-5B), which includes protease, helicase and polymerase, are expressed by the translation of the IRES of the encephalomyocarditis virus (EMCV).
The IRES of the hepatitis C virus or the hepatitis C viral nonstructural proteins consist of a replication complex. When the replication complex is affected by the candidate compound, the activity of the HCV replicon system is inhibited and the activity of the luciferase is reduced. Accordingly, the inhibition of the HCV can be estimated by determining the activity of the intensity of the luciferase expressed by the Huh-luc/noe-ET cell.
Inhibition of the HCV Replication by Determining the Firefly Luciferase Activity
(§1) Huh-luc/neo-ET cells with a concentration of 2.5×10^4 cells/100 μl/well were seeded into a 96 well culture plate (Corning Incorporation COSTAR, 3599) and placed into a cell incubator for culturing.
The oleanolic acid derivatives as listed in Table 2 were co-cultured with Huh-luc/neo-ET cells for 2 days. The mediums were washed twice by 100 μl of 1×PBS (1 mM KH2PO4, 10 mM Na2HPO4, 137 mM NaCl, 2.7 mM KCl) and PBS was removed. 35 μl of 1× passive lysis buffer (Promega, E1941) was added to the cells and vortexed for 10 minutes to thoroughly lysis the cells.
30 μl/well of the cell suspension was then added to a 96 well white plate (NUNC, 236108) for the measurement of the luciferase activity. Subsequently, 40 μl/well of luminescence analysis buffer and 20 μl/well of luminescence substrate (1 mM D-Luciferin) were added into the 96 well white plates. The luciferase activity (Rlu/s) was measured by a microplate luminescence meter (Berthold, MPL4) immediately.
The luciferase activity of the control was set as a standard to calculate the inhibition rates (%) of HCV of the experiment groups. The inhibition rates was calculated by the following formula: […]
After the test compounds were serial diluted and the inhibition rates of the HCV replication were determined at different concentrations, the concentration at 50% inhibition of the HCV replication (IC50) was calculated by grafit5 software (Erithacus Software).
For each experiment, 0.5 ng/ml and 0.1 ng/ml of the PEG IFN alpha-2a were used as positive controls for the IC50 test. Meanwhile, 1 μg/ml of cyclosporine A (CsA) was also used as a positive control for the IC50 test.
In general terms: Replicon systems follow genome replication, usually without infectious particles.

For another series, the system named is Huh-luc/neo-ET cells. In words: Cell cytotoxic test (MTT) on Huh-luc/neo-ET cells. It is filed as cell-based. The settings on record: concentration for 15% cell kill, two-day culture. The method, then:
(§2) Cell Cytotoxic Test on Huh-luc/noe-ET Cells
as §1
(§3) The next day, the oleanolic acid derivatives as listed in the following Tables 1 and 2 were diluted with a DMEM culture medium to the concentrations of 28.73 μg/ml, 9.57 μg/ml, 3.19 μg/ml, 1.06 μg/ml, 0.35 μg/ml, 0.11 μg/ml, 0.039 μg/ml and 0.013 μg/ml, respectively, or diluted to the concentrations of 114.92 μg/ml, 38.33 μg/ml, 12.77 μg/ml, 4.25 μg/ml, 1.42 μg/ml, 0.46 μg/ml, 0.16 μg/ml and 0.057 μg/ml, respectively. The initial medium in the 96 well culture plate was sucked out by a vacuum pump (DOAT-704AA) without removing the cells. Then, the culture medium containing the oleanolic acid derivatives were added into the 96 well culture plate containing 100 μl/well of the cells as the experiment groups, while the untreated culture mediums were added to the cells as a control.
(§4) After a two-day culture, the medium was removed and each well containing cells was washed by 100 μl of 1×PBS (1 mM KH2PO4, 10 mM Na2HPO4, 137 mM NaCl, 2.7 mM KCl) twice. Precipitates were recorded and PBS was removed. 50 μl of the medium containing 0.5 mg/ml of MTT (Sigma, M2128) was added into each well of the 96 well culture plate. The 96 well culture plate was placed in a CO2 culture incubator for 1 hour. Subsequently, 150 μl of DMSO (Riedel-de Haül, 60153) was added to each well of the 96 well culture plate and vortexed (KS shaker Type 670) to thoroughly mix the resulting purple precipitates. The 96 well culture plate was then placed in a continuous wave length microwell plate analysis system (Molecular Devices, SPECTRAMAX 190) to measure the absorbance of cells at a wavelength of 560 nm.
(§5) The average absorbance of the control was set as 100% of the cell survival rates (%) to calculate the cell survival rates (%) of the experiment groups with different concentrations of the oleanolic acid derivatives.
(§6) The cell survival rate was calculated by the following formula: Absorbance of the experiment group/Absorbance of the control×100%
(§7) The data of the cell survival rates for all experiment groups were plotted on an x-y graph to see the distribution. A trend line was obtained. […]

The nature of series [2]: Cell cytotoxic test (MTT) on Huh-luc/neo-ET cells. Format: cell-based. Conditions: human, concentration for 50% cell kill, two-day culture. The method, then:
as §2, §1, §3, §4, §5, §6, §7

The mark [3] stands for this setting: Hepatitis C virus, concentration for 50% inhibition of the HCV replication, Huh-luc/neo-ET replicon cells, read-out: IC50.
Where [4] appears, read: Hepatitis C virus, Huh-luc/neo-ET, 48 h, compound concentration 10 μM, 2 days co-culture, luciferase activity, read-out: Inhibition rate (%).

SMILES strings stand for the structures. Where two headings read alike, the source gives them in different places.

By IC50 is commonly meant the point on the concentration scale where inhibition reaches its midpoint. One may read the inhibition as the change of the read-out against control, counted positive when it falls. As a reminder, the CC50 is the concentration at which the toxic effect on the cells reaches its halfway point.

`COc1ccc(/C=C/C(=O)OC2C(C)OC(OC(=O)C34CCC(C)(C)CC3C3=CCC5[C@@]6(C)CC[C@H](OC7OC(C(=O)O)C(O)C(O)C7OC7OC(CO)C(O)C(O)C7O)[C@@](C)(C=O)C6CC[C@@]5(C)[C@]3(C)C[C@H]4O)C(OC3OC(C)C(O)C(O)C3OC3OCC(O)C(O)C3O)C2O)cc1` (some centres unmarked) [A12] gave an IC50 in series [1] (Hepatitis C virus, Huh-luc/neo-ET) of 0.08 ± 0.003 µM. Also, the inhibition at 10 µM in series [1] (Hepatitis C virus, Huh-luc/neo-ET, 48 h, read-out: Inhibition rate (%)) came to 95.8 ± 1%. The “EW (CC50/IC50)” value in series [1] stood at 1250. Moreover, in the series with Huh-luc/neo-ET cells, the CC15 was greater than 100 µM. This molecule came in with a cytotoxic concentration (CC50) at 2 days in series [2] greater than 100 µM.

For the molecule `C=CC(C)(O)CCCC(C)C(=O)OC1C(OC2OCC(OC3OC(CO)C(O)C(O)C3O)C(OC3OCC(O)C(OC4OC(CO)C(O)C(O)C4O)C3O)C2O)COC(OC(=O)C23CCC(C)(C)CC2C2=CCC4C5(C)CCC(OC6OC(CO)C(OC7OC(CO)C(O)C(OC8OCC(O)C(O)C8O)C7O)C(O)C6O)C(C)(C)C5CCC4(C)C2(C)CC3O)C1O` (centres unmarked) [A10], the inhibition at 2 µM in series [1] (Hepatitis C virus, Huh-luc/neo-ET, 48 h, compound concentration 2 μM, 2 days co-culture, luciferase activity, read-out: Inhibition rate (%)) came out at 95.7 ± 0.6%. In addition, the half-maximal inhibitory concentration (IC50) in series [1] (setting [3]) was found to be 0.31 ± 0.04 µM. Further, in series [1], the “EW (CC50/IC50)” value worked out at 126.13. In addition, the CC15 in the series with Huh-luc/neo-ET cells amounted to 2.2 µM. This molecule also displayed a CC50 at 2 days in series [2] of 39.1 µM.

In the case of `C=CC(C)(O)CC/C=C(\C)C(=O)OC1C(OCC2OC(OC(=O)C34CCC(C)(C)CC3C3=CCC5C6(C)CCC(OC7OC(COC8OCC(O)C(O)C8OC8OCC(O)C(O)C8O)C(O)C(O)C7O)C(C)(C)C6CCC5(C)C3(C)CC4O)C(OC3OC(C)C(OC4OCC(O)C(OC5OCC(O)C(O)C5O)C4O)C(O)C3O)C(OC(=O)/C(C)=C/CCC(C)(O)C=C)C2O)OC(C)C(O)C1O` (centres unmarked) [A21], the inhibition at 10 µM in series [1] (setting [4]) turned out to be 97.3 ± 1.1%. In series [1] (setting [3]), the 50% inhibitory concentration (IC50) was 0.63 ± 0.07 µM. Also, in series [1], the “EW (CC50/IC50)” value is on record as 90.03. In addition, the CC15 in the series on Huh-luc/neo-ET cells was determined as 11.64 µM. Besides, in series [2], the CC50 at 2 days was 56.7 µM.

`CC(=O)OC1C(OC(=O)C(C)C)C2(CO)C(CC1(C)C)C1=CCC3C4(C)CCC(OC5OC(C)C(OC6OC(C(=O)O)C(O)C(OC7OC(CO)C(O)C(O)C7OC7OC(CO)C(O)C(O)C7O)C6O)C(O)C5O)C(C)(C)C4CCC3(C)C1(C)C(O)C2O` (centres unmarked) [A13]: the inhibition at 15 µM in series [1] (Hepatitis C virus, Huh-luc/neo-ET, 48 h, compound concentration 15 μM, 2 days co-culture, luciferase activity, read-out: Inhibition rate (%)) amounted to 93 ± 0.4%. The half-inhibitory concentration (IC50) in series [1] (setting [3]) worked out at 3.31 ± 0.29 µM. Also, in series [1], the “EW (CC50/IC50)” value worked out at 30.21. The CC15 in the series on Huh-luc/neo-ET cells was 16.1 µM. Also, the CC50 at 2 days in series [2] was 100 µM.

For `CC1(C)CC[C@]2(C(=O)O)CC[C@]3(C)C(=CCC4[C@@]5(C)C[C@@H](O)[C@H](OC(=O)/C=C/c6ccc(O)cc6)C(C)(C)C5CC[C@]43C)C2C1` (some centres unmarked) [A09], the inhibition at 10 µM in series [1] (setting [4]) was determined as 13.6 ± 0.5%. In the series on Huh-luc/neo-ET cells, this molecule yielded a CC15 of 3.1 µM. Besides, it took 26.1 µM to reach half-maximal cytotoxicity in series [2] (CC50 at 2 days).

The values above are taken from patent publication US9289443B2, “Pharmaceutical composition and method for preventing or treating hepatitis C” (INDUSTRIAL TECHNOLOGY RESEARCH INSTITUTE, priority 2010, dated 2016).
